Assay results: patent US6991780B2, “Aluminum-zirconium antiperspirant salts with low M:CI ratio” (The Gillette Company, priority 2000, dated 2006)
Values joined by “and” are separate entries in the source; they are usually repeats but may differ in a detail not shown here. Equal values may be shown once.

Columns and labels:
[1] = system: volunteer panelists (axilla); assay: standard hot room thermal efficacy (sweat reduction), test product on one axilla vs control on the other; assay type: in vivo, human; details: for antiperspirant efficacy compared with conventional enhanced antiperspirant salt (EAZCH): in words, from Table 2 data
Source text: The above-described enhanced efficacy salt may be tested for thermal efficacy (i.e. hot room sweat reduction) using volunteer panelists in a standard hot room protocol. The test product (vehicle plus enhanced efficacy salt) is applied to one axilla and control product (vehicle only or vehicle plus standard efficacy antiperspirant salt) is applied to the other axilla. The above-described enhanced efficacy salt typically provides a sweat reduction of about 57–62% versus about 47–52% obtained with standard efficacy salt, when suspended as an 18–19% USP active in a liquid volatile silicone carrier vehicle. Also, a freshly prepared aqueous solution of the above-described enhanced efficacy salt (20% USP active) typically provides a sweat reduction of about 63–69% versus about 48–54% obtained with standard efficacy salt in aqueous solution at the same concentration.
The above-described high peak 5 enhanced efficacy salts of Example 1 are tested for thermal efficacy (i.e. hot room sweat reduction) using volunteer panelists in a standard hot room protocol. The test product is applied to one axilla and control product is applied to the other axilla in an AvB comparison. In all cases, the test product comprises vehicle (as described below) plus high peak 5 enhanced efficacy salt (E^5AZCH). The control product comprises vehicle plus conventional enhanced efficacy (high peak 4:3) antiperspirant salt (EAZCH), except where the vehicle is a clear gel formulation, in which case a standard efficacy salt (AZCH) is used because of the instability of the conventional enhanced salt in aqueous formulations. To counteract this instability, the formulation identified as “Aqueous” below, is freshly prepared with powdered EAZCH just prior to being tested. The results are reported as the average sweat reduction (“S.R.”) gain over the control (i.e. the absolute percentage point increase in sweat reduction over the control).

[2] = HPLC aluminum peak distribution after storage (stability of enhanced state); assay type: physicochemical; details: aqueous solution
Procedure: Throughout the specification reference to HPLC analysis means that chromatograms are obtained as follows: Salt solutions are evaluated for aluminum polymer distribution by HPLC at a concentration of about 10% (USP) Al—Zr salt. If the solution to be analyzed is at a higher salt concentration, it is diluted with sufficient water to bring the salt concentration to about 10%. A 1.0 μL sample is injected into a Waters U6K injector, then pumped through a 4.6 mm×500 mm column packed with Nucleosil 100-5 silica with pore size of 100 angstroms and particle size of 5 μm (Keystone Scientific Inc.) using a 0.01M aqueous nitric acid solution as the eluant. The flow rate of the mobile phase is controlled at 0.5 mL/min with an LDC/Milton Roy Constametric-II metering pump (ThermoQuest Inc.). HPLC profiles are recorded and processed with a computerized system that includes the Millennium 32 Chromatography Manager software from Waters Corp. A Waters 2410 differential refractometer is used as the refractive index detector. The HPLC profiles are read from left to right (higher to lower molecular weight). Following this technique, peak 3 typically appears at a retention time of about 11.0–12.0 minutes (Kd≅0.58–0.61), peak 4 typically appears at a retention time of about 11.9–12.9 minutes (Kd≅0.62–0.72), and peak 5 typically appears at a retention time of about 13.3–14.0 minutes (Kd≅0.83–0.91). […]

[3] = aqueous solution, 20% USP active (enhanced salt freshly prepared)
[4] = suspended as 18–19% USP active in liquid volatile silicone carrier vehicle

With “aluminum-zirconium chlorohydrate [salt A]” the “antiperspirant efficacy compared with conventional enhanced antiperspirant salt (EAZCH)” value ([1]; listed as A) was “more efficacious” and the “Avg. S.R. Gain Over Control” value ([1]; vehicle Roll-On (20.0% AP active), control EAZCH, listed as A) was 5.8 percentage point.
With “aluminum-zirconium chlorohydrate [salt C]” the “retention of efficacy on storage” value ([1]; after storage of the clear gel at high temperature) was “maintains its high efficacy”, the “antiperspirant efficacy compared with current commercial clear gel product (standard efficacy salt)” value ([1]; formulated as clear gel) was “substantially more efficacious” and the “antiperspirant efficacy compared with conventional enhanced antiperspirant salt (EAZCH)” value ([1]; listed as C) was “more efficacious”. For the same substance, the “Avg. S.R. Gain Over Control” value ([1]; vehicle Aqueous (20% USP AP active), control EAZCH freshly prepared, listed as C) was 4.2 percentage point, the “Avg. S.R. Gain Over Control” value ([1]; vehicle Clear Gel (23.5% AP active), control AZCH) was 15.9 percentage point and the “Avg. S.R. Gain Over Control” value ([1]; vehicle Clear Gel aged 3 months at 45° C., control AZCH) was 13.3 percentage point.
With “aluminum-zirconium chlorohydrate [salt D]” the “antiperspirant efficacy compared with conventional enhanced antiperspirant salt (EAZCH)” value ([1]; listed as D) was “more efficacious”, the “Avg. S.R. Gain Over Control” value ([1]; vehicle Aqueous (20% USP AP active), control EAZCH freshly prepared, listed as D) was 5.9 percentage point and 4.6 percentage point and the “Avg. S.R. Gain Over Control” value ([1]; vehicle Roll-On (20.0% AP active), control EAZCH, listed as D) was 8.7 percentage point.
For “aluminum-zirconium chlorohydrate [salt E]”, the “antiperspirant efficacy compared with conventional enhanced antiperspirant salt (EAZCH)” value ([1]; listed as E) was “just as efficacious” and the “Avg. S.R. Gain Over Control” value ([1]; vehicle Aqueous (20% USP AP active), control EAZCH freshly prepared, listed as E) was 1.3 percentage point.
With “aluminum-zirconium chlorohydrate [salt F]” the “antiperspirant efficacy compared with conventional enhanced antiperspirant salt (EAZCH)” value ([1]; listed as F) was “more efficacious”, the “Avg. S.R. Gain Over Control” value ([1]; vehicle Aqueous (20% USP AP active), control EAZCH freshly prepared, listed as F) was 4.5 percentage point and the “Avg. S.R. Gain Over Control” value ([1]; vehicle Solid (23.5% AP active), control EAZCH, listed as F) was 4.0 percentage point.
In the case of “aluminum-zirconium chlorohydrate [salt G]”, the “antiperspirant efficacy compared with conventional enhanced antiperspirant salt (EAZCH)” value ([1]; listed as G) is reported as “just as efficacious” and the “Avg. S.R. Gain Over Control” value ([1]; vehicle Solid (23.5% AP active), control EAZCH, listed as G) is reported as 2.1 percentage point.
In the case of “aluminum-zirconium chlorohydrate [salt H]”, the “antiperspirant efficacy compared with conventional enhanced antiperspirant salt (EAZCH)” value ([1]; listed as H) is reported as “just as efficacious” and the “Avg. S.R. Gain Over Control” value ([1]; vehicle Aqueous (20% USP AP active), control EAZCH freshly prepared, listed as H) is reported as 0.3 percentage point.
In the case of “aluminum-zirconium chlorohydrate [salt J]”, the “antiperspirant efficacy compared with conventional enhanced antiperspirant salt (EAZCH)” value ([1]; listed as J) is reported as “more efficacious” and the “Avg. S.R. Gain Over Control” value ([1]; vehicle Aqueous (20% USP AP active), control EAZCH freshly prepared, listed as J) is reported as 4.3 percentage point.
For “aluminum-zirconium chlorohydrate [salt K]”, the “antiperspirant efficacy compared with conventional enhanced antiperspirant salt (EAZCH)” value ([1]; listed as K) was “just as efficacious” and the “Avg. S.R. Gain Over Control” value ([1]; vehicle Aqueous (20% USP AP active), control EAZCH freshly prepared, listed as K) was 1.7 percentage point.
With “aluminum-zirconium chlorohydrate-gly [AZCH, reference compound]” the sweat reduction [1, 3] was 48–54% and the sweat reduction [1, 4] was 47–52%.
With “aluminum-zirconium octachlorohydrate-gly [salt B]” the “antiperspirant efficacy compared with conventional enhanced antiperspirant salt (EAZCH)” value [1] was “more efficacious”, the “retention of efficacy on storage” value ([1]; stored as concentrated aqueous solution for 1.5 years) was “retains its superior efficacy” and the “Avg. S.R. Gain Over Control” value ([1]; vehicle Aqueous, aged 1.5 years, control EAZCH) was 7.0 percentage point.
With “aluminum-zirconium tetrachlorohydrate [EAZCH, reference compound]” the “stability of enhanced state (peak 4:3 ratio) in aqueous form” value [2] was “peak 4:3 ratio deteriorates very quickly”, the sweat reduction [1, 3] was 63–69% and the sweat reduction [1, 4] was 57–62%.
